Assay results as given in US20260137795A1, “EXATECAN IMMUNOCONJUGATES” (Immunome, Inc., priority 2023, published 2026).
pIC50: −log10 of the molar value. Structures can show the parent of a compound that is named as a salt.

Assays:
Jeko-1 = assay: CTG assay of payloads (CellTiter-Glo cell viability); type: cell-based
Description: The CTG assay is a method of determining the number of viable cells in culture based on quantitation of the ATP present, an indicator of metabolically active cells. The cell assay requires the addition of a single reagent, Cell Titer Glo, in which cells are lysed and generation of a luminescent signal is produced. The luminescent signal is proportional to the amount of ATP present. The amount of ATP is directly proportional to the number of cells present in culture. For our assay, cells are ensured to be in log-phase for either Jeko-1 or MDA-MB-468. Cells are transferred to 96 wells and treated with compounds in three-fold serial dilution starting from […] (10 points dilution), for 72 h. Cell viability is analyzed with CellTiter-Glo® Luminescent Cell Viability Assay (Promega) following manufactures' instruction. Percentage of viable cells in each compound concentration is determined by normalizing with the luminescence of vehicle control and plotted into percentage of viability versus dose response curve by nonlinear fit in GraphPad Prism software.

[1] = Human hepatocyte clearance (HHEP CL); type: in vitro ADME; design: half-life: dose or concentration left out as unconfirmed; settings: for half-life: both sexes, human; for HHEP Cl T1/2: human hepatocytes intrinsic clearance, 90 min incubation
Experimental: Suspensions of human hepatocytes (from 10 mixed gender human donors, final concentration 0.5×10^6 cell/mL) in Williams' E medium are incubated for 90 min with a test compound (0.90% acetonitrile and 0.10% DMSO, final concentration […]) and positive controls (7-Ethoxycoumarin, 7-Hydroxycoumarin, 0.90% acetonitrile and 0.10% DMSO, final concentration […]), with constant shaking at about 600 rpm at 37° C., in an incubator at 5% CO2 and 95% humidity. The total volume of incubation was 200 μL. A sample ([…]) is taken out at TO, 15, 30, 60 and 90 min, which is added intermediately to the ice-cold stop solution (acetonitrile with 200 ng/ml of tobutamide and labetalol as internal standard) (125 μl), and vortexed at 500 rpm for 10 min, centrifuged at 3220×g for 20 min at 4° C. Analytical plates are sealed and stored at 4° C., until LCMS analysis. Viability of hepatocytes at pre-incubation is determined to be 84.5%.

[2] = Human liver microsome clearance (HLM CL); type: in vitro ADME; design: half-life: dose or concentration left out as unconfirmed; settings: for half-life: human, microsomes; for HLM Cl T1/2: human liver microsome clearance, 60 min incubation, NADPH
Experimental: Working solution is prepared by adding 5 μL of compound and control stock solution (10 mM in dimethyl sulfoxide, DMSO) to 495 μL of acetonitrile (ACN) (intermediate solution concentration: 100 μM, 99% CAN and 1% DMSO. The appropriate concentrations of microsome working solutions are prepared in 100 mM potassium phosphate buffer. After reaction plates containing mixtures of compound and microsomes are pre-incubated at 37° C., for 10 min. […] of 2 mM of NADPH and 2 mM of MgCl2 solution is added to start the reaction. The final concentrations of incubation medium are as follows: microsome-0.5 mg protein/mL, test compound/control […], NADPH—1 mM, MgCl2—1 mM, acetonitrile 0.99%, DMSO 0.01%. Incubations are performed at 37° C., for 60 min. Samples are taken out at T0, T5, T15, T30, T45 and T60, which is added intermediately to the ice-cold stop solution (acetonitrile with 200) ng/ml of tobutamide and labetalol as internal standard) (125 μl), shaken for 10 min, centrifuged at 4000 rpm for 20 min at 4° C. Analytical plates are analyzed by LCMS.
Human liver microsome clearance assay assess metabolism by the cytochrome P450 system (phase I enzymes). These enzymes oxidize substrates by incorporating oxygen atoms into hydrocarbons, thus causing the introduction of hydroxyl groups, or N- O- and S-dealkylation of substrates and forming more polar products easier to be cleared. Human hepatocyte clearance assay measures more broadly the overall cellular metabolism of the test compound (phase I and phase II enzyme pathways). Phase II enzymes catalyze the conjugation reaction of xenobiotic metabolites and charged species, such as glutathione, sulfate, glycine, or glucuronic acid to form even more polar compounds for easier clearance.

physchem = assay: physchem; design: dose or concentration left out as unconfirmed; settings: PAMPA
[3] = PAMPA (Parallel Artificial Membrane Permeability Assay); design: dose or concentration left out as unconfirmed; settings: pH 7.4
[4] = AC-SINS self-interaction (antibody developability); type: physicochemical; settings: FIG. 19
Experimental: Antibody developability was assessed by performing an AC-SINS assay and evaluating the potential for self-interaction.
An initial assessment of antibody developability was performed by AC-SINS to evaluate the potential for self-interaction (FIG. 19).

Row | Compound | pIC50 (Jeko-1; Homo sapiens, JeKo-1, 72 h) | half-life ([1]; hepatocytes) [h] | half-life [2] [h] | Papp (physchem; pH 5) [×10⁻⁶ cm/s] | Papp (physchem; pH 7.4) [×10⁻⁶ cm/s] | pIC50 (Jeko-1; 72 h) | HHEP Cl T1/2 [1] [h] | HLM Cl T1/2 [2] [h] | half-life ([1]; hepatocytes in suspension, read-out: HHEP Cl T1/2) [h] | Papp [3] [×10⁻⁶ cm/s] | AC-SINS shift / self-interaction [4]
1 | CC[C@@]1(O)C(=O)OCc2c1cc1n(c2=O)Cc2c-1nc1cc(F)c(C)c3c1c2[C@@H]([C@H](CCO)NC(C)C)CC3 (single isomer, unassigned) [Compound 14-92] | 8.77 | > 3.62 | 0.95 | 17.7 | 8.4 | – | – | – | – | – | –
2 | CC[C@@]1(O)C(=O)OCc2c1cc1n(c2=O)Cc2c-1nc1cc(F)c(C)c3c1c2[C@@H]([C@@H](CCO)NC(C)C)CC3 (single isomer, unassigned) [Compound 14-93] | 8.59 | 3.08 | 0.767 | 20.6 | 9.2 | – | – | – | – | – | –
3 | CC[C@@]1(O)C(=O)OCc2c1cc1n(c2=O)Cc2c-1nc1cc(F)c(C)c3c1c2[C@H]([C@H](CCO)NC(C)C)CC3 (single isomer, unassigned) [Compound 14-94] | 8.80 | 1.13 | 0.112 | 16.5 | 7.5 | – | – | – | – | – | –
4 | CC[C@@]1(O)C(=O)OCc2c1cc1n(c2=O)Cc2c-1nc1cc(F)c(C)c3c1c2[C@H]([C@@H](CCO)NC(C)C)CC3 (single isomer, unassigned) [Compound 14-95] | 8.77 | 1.42 | 0.483 | 12.7 | 6.6 | – | – | – | – | – | –
5 | CC[C@@]1(O)C(=O)OCc2c1cc1n(c2=O)Cc2c-1nc1cc(F)c(C)c3c1c2[C@@H]([C@H](CCO)N(C)C)CC3 (single isomer, unassigned) [Compound 15-96] | 9.28 | > 3.62 | 1.6 | 16.7 | 15.6 | – | – | – | – | – | –
6 | CC[C@@]1(O)C(=O)OCc2c1cc1n(c2=O)Cc2c-1nc1cc(F)c(C)c3c1c2[C@@H]([C@@H](CCO)N(C)C)CC3 (single isomer, unassigned) [Compound 15-97] | 9.52 | 1.88 | 0.6 | 36.6 | 15.7 | – | – | – | – | – | –
7 | CC[C@@]1(O)C(=O)OCc2c1cc1n(c2=O)Cc2c-1nc1cc(F)c(C)c3c1c2[C@H]([C@H](CCO)N(C)C)CC3 (single isomer, unassigned) [Compound 15-98] | 9.60 | 1.3 | 0.112 | 27 | 11.3 | – | – | – | – | – | –
8 | CC[C@@]1(O)C(=O)OCc2c1cc1n(c2=O)Cc2c-1nc1cc(F)c(C)c3c1c2[C@H]([C@@H](CCO)N(C)C)CC3 (single isomer, unassigned) [Compound 15-99] | 9.49 | 3.47 | 0.967 | 14.9 | 8.5 | – | – | – | – | – | –
9 | CC[C@@]1(O)C(=O)OCc2c1cc1n(c2=O)Cc2c-1nc1cc(F)c(C)c3c1c2[C@@H]([C@@H](N)CO)CC3 (single isomer, unassigned) [Compound 16-102, hydrochloride] | 7.56 | 1.75 | 2.37 | – | 0.02 | – | – | – | – | – | –
10 | CC[C@@]1(O)C(=O)OCc2c1cc1n(c2=O)Cc2c-1nc1cc(F)c(C)c3c1c2[C@@H]([C@H](N)CO)CC3 (single isomer, unassigned) [Compound 16-105, hydrochloride] | 7.99 | 1.87 | > 2.42 | 0.07 | 0.06 | – | – | – | – | – | –
11 | CC[C@@]1(O)C(=O)OCc2c1cc1n(c2=O)Cc2c-1nc1cc(F)c(C)c3c1c2[C@H]([C@@H](N)CO)CC3 (single isomer, unassigned) [Compound 16-108, hydrochloride] | 8.08 | 2.1 | 1.83 | – | 0.002 | – | – | – | – | – | –
12 | CC[C@@]1(O)C(=O)OCc2c1cc1n(c2=O)Cc2c-1nc1cc(F)c(C)c3c1c2[C@H]([C@H](N)CO)CC3 (single isomer, unassigned) [Compound 16-111, hydrochloride] | 7.75 | 2.22 | 1.72 | 0.03 | 0.04 | – | – | – | – | – | –
13 | CC[C@@]1(O)C(=O)OCc2c1cc1n(c2=O)Cc2c-1nc1cc(F)c(C)c3c1c2[C@@H]([C@H](CO)NC(C)C)CC3 (single isomer, unassigned) [Compound 17-112] | 7.77 | > 3.62 | 1.03 | 14.4 | 6.3 | – | – | – | – | – | –
14 | CC[C@@]1(O)C(=O)OCc2c1cc1n(c2=O)Cc2c-1nc1cc(F)c(C)c3c1c2[C@@H]([C@@H](CO)NC(C)C)CC3 (single isomer, unassigned) [Compound 17-113] | 8.38 | 2.42 | 0.533 | 26.9 | 9.7 | – | – | – | – | – | –
15 | CC[C@@]1(O)C(=O)OCc2c1cc1n(c2=O)Cc2c-1nc1cc(F)c(C)c3c1c2[C@H]([C@H](CO)NC(C)C)CC3 (single isomer, unassigned) [Compound 17-114] | 8.72 | 0.8 | 0.035 | 18.3 | 8 | – | – | – | – | – | –
16 | CC[C@@]1(O)C(=O)OCc2c1cc1n(c2=O)Cc2c-1nc1cc(F)c(C)c3c1c2[C@H]([C@@H](CO)NC(C)C)CC3 (single isomer, unassigned) [Compound 17-115] | 7.80 | 1.5 | 0.1 | 10.5 | 4.8 | – | – | – | – | – | –
17 | CC[C@@]1(O)C(=O)OCc2c1cc1n(c2=O)Cc2c-1nc1cc(F)c(C)c3c1c2[C@@H](NC(=O)CO)CC3 [Dxd, reference compound] | – | – | – | – | – | 9.02 | >3.62 | 1.67 | – | – | –
18 | CC[C@@]1(O)C(=O)OCc2c1cc1n(c2=O)Cc2c-1nc1cc(F)c(C)c3c1c2[C@@H](N)CC3 [Exatecan] | 9.40 | – | 1.25 | > 107 | – | – | – | – | 2.38 | 16.3 | –
19 | CCc1c2c(nc3ccc(O)cc13)-c1cc3c(c(=O)n1C2)COC(=O)[C@]3(O)CC [SN-38, reference compound] | – | – | – | – | – | 9.04 | 1.28 | 1.35 | – | – | –
20 | Adalimumab | – | – | – | – | – | – | – | – | – | – | low shift
